Measured values as given in patent publication US11147786B2, “Methods of treating chronic dry eye disease using C16:1n7-palmitoleate and derivatives thereof” (Tersus Life Sciences, LLC, priority 2014, dated 2021).
Where “and” joins values, the source holds several entries; their conditions need not be identical. Identical values can stand only once. Entries after “also recorded” stand apart in the source; their conditions may differ.

Key:
Assay type in all cases: in vivo, human
[1] = system: patients diagnosed with dry eye disease; test: Tear osmolarity in patients with dry eye disease, Example 1
Protocol: (§1) Patients diagnosed with dry eye disease (as determined by having tear osmolarity over 308 mOsms/L, which is the clinical minimum for dry eyes, per eye) were treated daily with a dietary supplement containing 210 mg of C16:1n7-palmitoleate for 30 days.
(§2) Tear osmolarity for left and right eyes were scored at day 1 and day 30, see Table 1. A tear osmolarity score of below 308 mOsms/L is normal, 308-320 mOsms/L is mild dry eyes, 320-340 mOsms/L is moderate dry eyes, and above 340 mOsms/L is severe dry eye. At day 30, patients also ranked their feeling of improvement of dry eye on a scale of 1-10, see Table 1.

[2] = system: patients with moderate to severe dry eye symptoms/MGD; test: Patient comments on perceived improvement of dry eye symptoms, Example 2; details: patient's comment after 210 mg daily for over 30 days; one line per patient
Protocol: (§3) Twenty nine patients, each diagnosed as having moderate to severe dry eye symptoms/MGD, were selected for the study.
(§4) After the initial baseline evaluation, patients received daily doses of a dietary supplement containing 210 mg of C16:1n7-palmitoleate for over 30 days.
(§5) Tear osmolarity (TL) and MGD for left and right eyes (LE and RE respectively) were scored at Day 0 (baseline evaluation) and at the follow-up visit (FV), see Table 2. A tear osmolarity score of below 308 mOsms/L is normal, 308-320 mOsms/L is mild dry eyes, 320-340 mOsms/L is moderate dry eyes, and above 340 mOsms/L is severe dry eye. The terms ‘above’ and ‘below’ refer to values above and below the detectable range of the Tearlab diagnostic device respectively. Patients also recorded their comments regarding perceived improvements of their dry eye symptoms.

[3] = system: patients with moderate to severe dry eye symptoms/MGD; test: Tear osmolarity (TL) in patients with dry eye symptoms/MGD, Example 2
Protocol: as §3, §4, §5

[4] = system: patients with moderate to severe dry eye symptoms/MGD; test: Meibomian gland dysfunction (MGD) score, Example 2; parameters: key to Day 0 MGD RE / Day 0 MGD LE / FV MGD RE / FV MGD LE: 1=meibomian glands in all 3 regions secreting/cloudy; 2=meibomian glands in 2 out of 3 regions secreting/cloudy; 3=meibomian glands in 1 out of 3 regions secreting/cloudy; 4=no observable meibomian gland secretion in any of the 3 regions; 2+ and 2,3 are used interchangeably and mean more than ⅔<1; 2+ and 2,3 are used interchangeably and mean more than ⅔<1
Description: as §3
Patients were classified as having none, mild, or moderate meibomian gland secretion blockage by evaluating the secretion of the meibomian glands in the nasal, central, and temporal regions of the lower eyelid. MGD was scored using a 0-4 grading scale, 4 correlating with severe dysfunction. A summary of the grading scale is provided below: • 1=meibomian glands in all 3 regions secreting/cloudy • 2=meibomian glands in 2 out of 3 regions secreting/cloudy • 3=meibomian glands in 1 out of 3 regions secreting/cloudy • 4=no observable meibomian gland secretion in any of the 3 regions • 2+ and 2,3 are used interchangeably and mean more than ⅔<1.
as §4, §5

[5] = system: patients diagnosed with dry eye disease; test: Patient ranking of symptom improvement, Example 1; details: patient's ranking at day 30, 210 mg daily; one line per patient 1-8
Protocol: as §1, §2

Compound: CCCCCC/C=C\CCCCCCCC(=O)O [C16:1n7-palmitoleate]
- Tear Osmolarity Day 1, left eye ([1]; Day 1 (start of treatment), left eye, one line per patient 1-8, below 308 normal, 308-320 mild, 320-340 moderate, above 340 severe): Left eye 294 mOsms/L; also recorded: Left eye 333 mOsms/L; also recorded: Left eye 312 mOsms/L; also recorded: Left eye 351 mOsms/L; also recorded: Left eye 322 mOsms/L; also recorded: Left eye 314 mOsms/L; also recorded: Left eye 347 mOsms/L; also recorded: Left eye 332 mOsms/L
- Tear Osmolarity Day 1, right eye ([1]; Day 1 (start of treatment), right eye, one line per patient 1-8): Right eye 362 mOsms/L; also recorded: Right eye 305 mOsms/L; also recorded: Right eye 340 mOsms/L; also recorded: Right eye 382 mOsms/L; also recorded: Right eye 325 mOsms/L; also recorded: Right eye 341 mOsms/L; also recorded: Right eye 328 mOsms/L; also recorded: Right eye 367 mOsms/L
- Tear Osmolarity Day 30, left eye ([1]; Day 30 of daily dietary supplement with 210 mg, left eye, one line per patient 1-8): Left eye 300 mOsms/L; also recorded: Left eye 302 mOsms/L; also recorded: Left eye 293 mOsms/L; also recorded: Left eye 314 mOsms/L; also recorded: Left eye 301 mOsms/L; also recorded: Left eye 308 mOsms/L; also recorded: Left eye 313 mOsms/L
- Tear Osmolarity Day 30, right eye ([1]; Day 30 of daily dietary supplement with 210 mg, right eye, one line per patient 1-8): Right eye 314 mOsms/L; also recorded: Right eye 300 mOsms/L; also recorded: Right eye 308 mOsms/L; also recorded: Right eye 302 mOsms/L; also recorded: Right eye 299 mOsms/L; also recorded: Right eye 307 mOsms/L; also recorded: Right eye 367 mOsms/L; also recorded: Right eye 310 mOsms/L
- Dry eye severity after 30 days in patients with at least one severe dry eye initially ([1]; patients 1, 2, 5 and 7, 30 days of treatment): normal or very mild dry eyes
- Comment (perceived improvement of dry eye symptoms) [2]: great (4×) and good (19×) and poor and Better and happy (2×) and better
- Day 0 TL LE ([3]; left eye, Day 0 baseline before treatment, one line per patient): 311 mOsms/L and 307 mOsms/L (2×) and 349 mOsms/L (2×) and 312 mOsms/L and 314 mOsms/L (3×) and above (2×) and 324 mOsms/L and 339 mOsms/L and 308 mOsms/L and 364 mOsms/L (2×) and 361 mOsms/L and 317 mOsms/L (2×) and 302 mOsms/L and 326 mOsms/L and 356 mOsms/L and 320 mOsms/L and 313 mOsms/L and 358 mOsms/L and 323 mOsms/L and 327 mOsms/L
- FV TL LE ([3]; left eye, follow-up visit after 210 mg daily for over 30 days, one line per patient): 317 mOsms/L and 298 mOsms/L and 303 mOsms/L (2×) and 291 mOsms/L and 310 mOsms/L and 316 mOsms/L and 314 mOsms/L and 299 mOsms/L (2×) and 354 mOsms/L and 352 mOsms/L and 330 mOsms/L and 324 mOsms/L and 331 mOsms/L and 327 mOsms/L and 300 mOsms/L and above and 305 mOsms/L and below (2×) and 308 mOsms/L and 323 mOsms/L and 311 mOsms/L and 306 mOsms/L
- Day 0 TL RE ([3]; right eye, Day 0 baseline before treatment, one line per patient 1-29, above/below = outside detectable range of Tearlab device): 321 mOsms/L and 316 mOsms/L and 357 mOsms/L and 311 mOsms/L and 326 mOsms/L and 329 mOsms/L (2×) and 383 mOsms/L and 335 mOsms/L and below and 330 mOsms/L (2×) and 318 mOsms/L and 337 mOsms/L and 324 mOsms/L and 313 mOsms/L and 290 mOsms/L and 293 mOsms/L and 235 mOsms/L and 348 mOsms/L and 310 mOsms/L and 301 mOsms/L and 322 mOsms/L and 308 mOsms/L and 360 mOsms/L and 303 mOsms/L and 351 mOsms/L
- FV TL RE ([3]; right eye, follow-up visit after 210 mg daily for over 30 days, one line per patient): 284 mOsms/L and 302 mOsms/L (3×) and 301 mOsms/L and 295 mOsms/L and 307 mOsms/L (2×) and 304 mOsms/L and 348 mOsms/L and 354 mOsms/L and 352 mOsms/L and 345 mOsms/L and 309 mOsms/L and 314 mOsms/L and 318 mOsms/L (2×) and 355 mOsms/L and below (2×) and 294 mOsms/L and 303 mOsms/L and 308 mOsms/L and 311 mOsms/L and 235 mOsms/L
- Day 0 MGD LE ([4]; MGD score 0-4 (4 severe), left eye, Day 0 baseline before treatment, one line per patient): 2 (2×) and 4 (14×) and 2+ (2×) and 3 (8×)
- Day 0 MGD RE ([4]; MGD score 0-4 (4 severe), right eye, Day 0 baseline before treatment, one line per patient): 3 (9×) and 4 (14×) and 2+ (2×) and 2
- FV MGD LE ([4]; MGD score 0-4, left eye, follow-up visit after 210 mg daily for over 30 days, one line per patient): 1 (8×) and 3 (6×) and 2 (7×) and 1, and 2+ and 4 (4×) and 0
- FV MGD RE ([4]; MGD score 0-4, right eye, follow-up visit after 210 mg daily for over 30 days, one line per patient): 1 (9×) and 3 (5×) and 2+ and 2 (6×) and 1, and 4 (5×) and 0
- MG secretion in patients with severe MGD scores initially ([4]; patients 1, 4-7, 11-13, 15-16, 20-22, 24 and 27): showed improvement in MG secretion
- Symptom Improvement (Scale of 1-10) [5]: 4 (2×) and 7 (2×) and 6 (2×) and 8 and 3
